Laboratory results from paper PMC7463999, “Antioxidant, Anti-inflammatory and Neuroprotective Profiles of Novel 1,4-Dihydropyridine Derivatives for the Treatment of Alzheimer’s Disease” (Antioxidants, 2020).
“And” between values parts separate entries of the source, which are not always exact repeats. Equal entries are not always repeated. Where two headings read alike, the source gives them in different places.

What was measured:
DPPH reduction assay = conditions: DPPH 100 µM, 1 h in the dark
Description: The final solution was incubated during 1 h in the dark. […] Results are expressed as a percentage of DPPH reduction by subtracting blank absorbance (Absblank) to sample absorbance (Abssample) and corrected by control absorbance, (Abscontrol, DPPH alone, as expressed below: % DPPH reduction = [100 − ((Abssample − Absblank) × 100/Abscontrol)](1)
Briefly, the compounds under assay (150 µL) at the desired concentration (1, 10, 60 and 100 µM) in methanol/water (80/20) were added to a solution of DPPH in methanol/water (80/20) (150 µL, 100 µM), in a clear bottom 96-well plate, and the final solution was incubated 1 h in the dark. Then, DPPH absorbance of blank (methanol/water), control
Optima plate-reader (BMG Labtech, Ortenberg, Germany) in duplicate.
Results are expressed as % of absorbance (Abs) reduction of control after subtracting blank absorbance, as expressed
% DPPH reduction = [100 – (Abssample-Absblank) x 100]/Abscontrol

[1] = Oxygen Radical Absorbance Capacity (ORAC) assay; conditions: Trolox equivalents, ORAC of Trolox = 1.0; AAPH, fluorescein
primary glial cultures [2] = assay: Cytotoxicity (gliotoxicity) in primary glial cultures, MTT; conditions: 24 h
Description: (§1) cell line SH-SY5Y and primary glial cultures. Viability was measured as
(§2) MTT reduction in presence of increasing concentrations of derivatives.
(§3) Values are expressed as LD50 calculated from dose-response curves of four
(§4) different concentrations. Data are expressed as mean  SEM of five
different experiments in triplicate.
(§5) Mixed glial cultures were obtained from cerebral cortex of 2-5-day-old Sprague-Dawley rats. After removal of blood vessels and meninges, the forebrains were dissociated in DMEM/F12 medium. After mechanical dissociation, cells were plated (3x10^5 cells/ml) in DMEM/F12 medium with 20 % fetal bovine serum (FBS) and 1 % penicillin/streptomycin (10,000 units), at 37 °C and in a 5 % CO2-supplemented air atmosphere. After 5 days, medium was substituted by DMEM/F12 medium with 10 %
(§6) FBS. Cells were cultured for 7-10 days before treatment.
(§7) SH-SY5Y or primary glial cells were cultured in 96-well plates for 24 h. Then, cells
(§8) were treated with the compounds at 10, 30 and 100 µM in the corresponding culture media
(§9) with 1 % FBS After 24 h, cell viability was assessed by the MTT-reduction assay. Control
(§10) cells were incubated with the same concentration of DMSO (0.1 % final concentration)
Viability assay by MTT-reduction
(§11) SH-SY5Y, primary glial culture cells and rat hippocampal slices viability was
measured by the MTT assay [11].

[3] = system: primary glial cultures stimulated with LPS; assay: Nitrite production reduction (Griess) in LPS-stimulated mixed primary glial cultures; format: cell-based, rat; conditions: Rattus norvegicus; LPS 1 μg/mL, 24 h pre-incubation, 18 h co-incubation
[4] = Blood-brain barrier permeation assay (PAMPA), porcine brain lipid; format: in vitro ADME; conditions: for PAMPA Prediction: BBB permeability class from Pe; for Prediction of the BBB passive permeability: PAMPA control compounds
[5] = system: blood-brain barrier (passive diffusion); assay: as above; format: in vitro ADME
[6] = system: neuroblastoma cell line SH-SY5Y; assay: Cytotoxicity (neurotoxicity) in SH-SY5Y, MTT; conditions: 24 h
Description: (§12) LD50 in SH-SY5Y and primary glial culture cells
as §1, §2, §3, §4
different experiments in triplicate.
as §7, §8, §9, §10
Viability assay by MTT-reduction
as §11
(§13) measured by the MTT assay [11]. This method is based on the cleavage of the tetrazolium
(§14) ring of MTT by active dehydrogenases, generating a formazan precipitate. At the end of
(§15) the neuroprotection or toxicity experiments, an MTT solution was added to each well to
(§16) reach a final concentration of 0.5 mg/mL. After 2 additional hours of incubation, the
(§17) solution was replaced by 100 or 300 µL of DMSO to solubilize the formazan precipitate.
(§18) in control cells was considered as 100 % of cell survival and used to reference all

[7] = system: voltage-dependent Ca^2+ channels (VDCC); assay: Voltage dependent calcium channels blockade assay (Fluo-4, 70 mM K+); format: cell-based, human; conditions: compounds at 10 μM, SH-SY5Y, basal = 100% response
Description: Free cytosolic Ca^2+ was measured using the fluorescence Ca^2+ indicator Fluo-4/AM. SH-SY5Y cells were seeded in 96-well black bottom transparent plates at a density of 60,000 cells per well and cultured until they reach confluence. Cells were incubated with the Ca^2+ sensitive dye Fluo-4/AM at 5 µM in Krebs-HEPES buffer (KH) (145 mM NaCl, 4.9 mM KCl, 1.2 mM MgCl2, 2 mM CaCl2, 10 mM HEPES, 11 mM glucose, pH 7.4), and 0.05% pluronic acid, for 1 h at 37 °C in the dark. Then, cells were washed twice with KH solution to remove the excess of probe and compounds in solution were added. Test compounds at 10 µM were incubated 10 min before K^+ 70 mM was applied to trigger cytosolic Ca^2+ increase. Fluorescence was measured in a fluorescence microplate reader (FLUOstar Optima, BMG, Ortenberg, Baden-Wuerttemberg, Germany) at excitation and emission wavelengths 485 and 520 nm, respectively. To normalize Fluo-4 signals, Triton X-100 (5%) and subsequently MnCl2 1 M were applied to the cells to register maximal and minimal fluorescence, respectively. Data were calculated as a percentage of Fluorescence increment with respect to Fmax − Fmin. The percentage of response was calculated considering basal conditions as 100% response.
Voltage dependent Calcium Channel Blockade Assay
Free cytosolic Ca2+ was measured using the fluorescence Ca2+ indicator Fluo-4/AM.
SH-SY5Y cells were seeded in 96-well black bottom transparent plates at a density of 60,000 cells per well until reaching confluence. Cells were incubated with the Ca2+ sensitive dye fluo-4 AM at 5 µM in Krebs-Hepes buffer (KH) (145 mM NaCl, 4.9 mM KCl, 1.2 mM MgCl2, 2 mM CaCl2, 10 mM HEPES, 11 mM glucose, pH 7.4), and 0.05 % pluronic acid, for 1 h at 37 °C in the dark. Then, cells were washed twice with KH solution to remove the excess of probe and compounds in solution were added. Tested compounds at 10 µM were incubated 10 min before K+ 70 mM was applied to evoke the increment of cytosolic Ca2+. The experiments were analyzed at excitation and emission wavelengths of 485 and 520 nm, respectively, and fluorescence was measured in a fluorescence microplate reader (FLUOstar Optima, BMG, Germany). To normalize Fluo-4 signals, Triton X-100 (5 %) and subsequently MnCl2 1 M were applied to cells for registering both maximal and minimal fluorescence, respectively. Data were calculated as % F increment respect to Fmax – Fmin. % of blockade was calculated considering basal conditions as 100 % response.
Then, the donor filter plate was carefully put on the acceptor plate to form a “sandwich”, which was left undisturbed for 4 h at 25 °C. During this time, the compounds diffused from the donor plate through the polar brain lipid membrane (area = 0.28 cm2) into the acceptor plate. After incubation, the donor plate was carefully removed. UV plate reader determined the concentration of compounds and commercial drugs in both acceptor and […]

[8] = system: SH-SY5Y human neuroblastoma cells; assay: Neuroprotection against okadaic acid (tau hyperphosphorylation), MTT; conditions: 18 h; for percentage of protection, okadaic acid toxicity: 1 μM, OA 20 nM; for viability at 1 µM: Homo sapiens, SH-SY5Y, read-out: cell viability (percentage survival), okadaic acid toxicity
Description: (§19) Cells were pre-incubated with the corresponding compound at 1 μM in neuroblastoma culture medium. After 24 h, the medium was removed and replaced with 1% FBS neuroblastoma culture media containing the corresponding compound at 1 µM and the toxic stimuli, namely a mixture of rotenone and oligomycin A (R/O, 30 μM/10 μM, respectively), okadaic acid (OA) at 20 nM or a high concentration of KCl (70 mM). Cells were co-incubated for further 24 h with the R/O mixture or KCl solution, or 18 h with the OA solution. […] Control cells were incubated with the same amount of dimethyl sulfoxide (DMSO) without any drug. After the co-incubation period, cell viability was assessed by the 3-(4,5-dimethylthiazol-2-yl)-2,5-diphenyltetrazolium bromide (MTT) reduction method [56]; basal condition was considered as 100% survival.
(§20) Neuroprotection in the SH-SY5Y neuroblastoma cell line
(§21) A pre- and co-incubation protocol was followed. Cells were pre-incubated with the
(§22) corresponding compound at 1 M in neuroblastoma culture medium. After 24 h, the
(§23) medium was removed and replaced with 1% FBS neuroblastoma culture media
(§24) containing the corresponding compound at 1 µM and the toxic stimuli, namely a mixture
(§25) of rotenone and oligomycin A (30 M/10 M respectively), okadaic acid at 20 nM or a
(§26) high concentration of potassium chloride (70 mM). Cells were co-incubated for further
(§27) 24 h with the rotenone and oligomycin A or potassium chloride solution, or 18 h with the
(§28) okadaic acid solution. Control cells were incubated with the same amount of DMSO
(§29) and reference compounds in the rotenone-oligomycin A, okadaic acid or high
(§30) concentration of potassium models respectively. After the co-incubation period, cell
(§31) viability was assessed by the MTT-reduction method [11] considering basal conditions
Viability assay by MTT-reduction
as §11, §13, §14, §15, §16, §17, §18
(§32) treatments. The percentage of protection was calculated as follows: the percentage of cell
(§33) survival obtained with the toxic stimuli-treated cells subtracted to 100 was normalized to
(§34) 100 % of cell death. The percentage of protection was obtained by subtracting the
(§35) percentage of cell death in presence of the tested compound to 100 %.

[9] = system: SH-SY5Y human neuroblastoma cells; assay: Neuroprotection against rotenone/oligomycin A (oxidative stress), MTT; conditions: 1 μM, rotenone 30 μM / oligomycin A 10 μM, 24 h; for percentage of survival, R/O toxicity: basal = 100%
Description: as §19, §20, §21, §22, §23, §24, §25, §26, §27, §28, §29, §30, §31
Viability assay by MTT-reduction
as §11, §13, §14, §15, §16, §17, §18, §32, §33, §34, §35

[10] = system: SH-SY5Y human neuroblastoma cells; assay: Neuroprotection against 70 mM K+ ([Ca2+]c overload), MTT; conditions: 1 μM, 24 h, basal = 100%
Description: as §19, §20, §21, §22, §23
containing the corresponding compound at 1 µM and the toxic stimuli, namely a mixture […]
viability was assessed by the MTT-reduction method [11] considering basal conditions […]
measured by the MTT assay [11]. […]
treatments. The percentage of protection was calculated as follows: the percentage of cell […]

GSK-3β = GSK-3β (Homo sapiens, UniProt P49841); assay: GSK-3β inhibition, Kinase-Glo luminescence assay
GSK-3β, sequence (P49841 whole entry): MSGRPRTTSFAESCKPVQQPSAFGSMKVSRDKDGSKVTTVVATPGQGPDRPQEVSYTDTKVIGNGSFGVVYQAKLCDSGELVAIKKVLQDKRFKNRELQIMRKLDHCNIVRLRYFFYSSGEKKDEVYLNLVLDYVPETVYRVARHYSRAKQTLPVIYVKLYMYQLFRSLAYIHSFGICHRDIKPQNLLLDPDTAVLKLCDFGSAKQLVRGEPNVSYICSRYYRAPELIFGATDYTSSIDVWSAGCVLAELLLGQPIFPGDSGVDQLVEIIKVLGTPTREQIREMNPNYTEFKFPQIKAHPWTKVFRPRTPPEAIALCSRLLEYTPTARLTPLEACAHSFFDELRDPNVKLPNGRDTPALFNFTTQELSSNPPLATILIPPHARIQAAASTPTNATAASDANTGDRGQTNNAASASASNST

rat hippocampal slices = conditions: OA 1 μM alone, 6 h
Description: Finally, cell viability and ROS production were measured.
After the co-incubation period, cell
as §31
Viability assay by MTT-reduction
as §11, §13, §14, §15, §16, §17, §18, §32, §33, §34, §35
Acute treatment in rat hippocampal slices
3-4 months-old Sprague-Dawley rats were beheaded and both hippocampi dissected
0.5 mM CaCl2; 11 mM glucose and 200 mM sucrose at pH 7.4). […]
All values are expressed as mean ± S.E.M. IC50 and LD50 values were calculated by […]

primary glial cultures [11] = conditions: Sprague-Dawley, rat, 24 h
Description: as §1, §2, §3, §4
different experiments in triplicate.
as §5, §6, §7, §8, §9, §10
Viability assay by MTT-reduction
as §11
measured by the MTT assay [11].

[12] = system: neuroblastoma cell line SH-SY5Y; conditions: human, 24 h
Description: as §12, §1, §2, §3, §4
different experiments in triplicate.
as §7, §8, §9, §10
Viability assay by MTT-reduction
as §11, §13, §14, §15, §16, §17, §18

[13] = PAMPA, 100 µM, PBS pH 7.4, 4 h at 25 °C, mean ± SEM, read-out: PAMPA Pe
[14] = pH 7.4, PAMPA control compounds, Pe ± SD, read-out: Pe ± SD

Structure (SMILES)	IC50 (DPPH reduction assay) [µM]	ORAC (T. Eq.) [1]	Glial cultures LD50 (primary glial cultures [2]) [µM]	EC50 [3] [µM]	PAMPA Prediction [4]	Papp at 4 h, 100 µM [5, 13] [nm/s]	SH-SY5Y LD50 [6] [µM]	VDCC % Response [7]	IC50 (GSK-3β) [µM]	Ki (GSK-3β) [µM]	other results
Cc1[nH]nc2c1C(c1ccccc1)C(C#N)=C(N)N2 (stereo not drawn) [4a]	25.2 ± 7.91	0.69 ± 0.04 T. Eq.	> 100	5.2 ± 1.89	CNS+	80 ± 15	> 100	72.1 ± 5.8%			
Cc1[nH]nc2c1C(c1ccncc1)C(C#N)=C(N)N2 (stereo not drawn) [4l]	22.9 ± 4.23	1.1 T. Eq. and 1.10 ± 0.13 T. Eq.	> 100	15.6 ± 3.35	CNS+	50 ± 29	> 100	68.9 ± 4.5%	10.2 ± 3.2	7.14	percentage of protection, okadaic acid toxicity [8]: over 50%; percentage of protection, R/O toxicity [9]: 71.6%; survival percentage, high K+ toxicity [10]: 78.9%
Cn1c(=O)c2c(ncn2C)n(C)c1=O [Caffeine, reference compound]											Prediction of the BBB passive permeability [4]: CNS (-)
Cc1[nH]nc2c1C(c1cccc(Cl)c1)C(C#N)=C(N)N2 (stereo not drawn) [4d]	22.8 ± 4.63	0.63 T. Eq. and 0.63 ± 0.09 T. Eq.	> 100	0.78 ± 1.98	CNS+	118 ± 30	> 100	76.0 ± 6.5%	1.05 ± 0.3	0.74	percentage of protection, R/O toxicity [9]: 32.0%; percentage of survival, R/O toxicity [9]: 72.3%; survival percentage, high K+ toxicity [10]: 61.4%
CN1C(C(=O)Nc2ccccn2)=C(O)c2ccccc2S1(=O)=O [Piroxicam, reference compound]											Prediction of the BBB passive permeability [4]: CNS (+/-); Papp at 4 h, 100 µM [5, 14]: 33 ± 1 nm/s
O=C1O[C@H]([C@@H](O)CO)C(O)=C1O [Ascorbic ac., Ascorbic acid, reference compound]	61.9 ± 4.96										
C=C1[C@@H](O)[C@@H]2O[C@]3(CC[C@H](/C=C/[C@@H](C)[C@@H]4CC(C)=C[C@@]5(O[C@H](C[C@@](C)(O)C(=O)O)CC[C@H]5O)O4)O3)CC[C@H]2O[C@@H]1[C@@H](O)C[C@H](C)[C@H]1O[C@@]2(CCCCO2)CC[C@H]1C [OA, okadaic acid]											reduction of cell viability of hippocampal slices (rat hippocampal slices): 30%
Cc1[nH]nc2c1C(c1cccnc1)C(C#N)=C(N)N2 (stereo not drawn) [4k]	17.1 ± 2.18	1.03 ± 0.16 T. Eq.	> 100	22.3 ± 3.42	CNS-	7 ± 9	> 100	85.6% and 85.6 ± 5.3%	4.53 ± 2.1	3.18	percentage of protection, okadaic acid toxicity [8]: over 50%
Cc1[nH]nc2c1C(c1ccc([N+](=O)[O-])cc1)C(C#N)=C(N)N2 (stereo not drawn) [4i]	23.2 ± 4.31	0.96 ± 0.05 T. Eq.	> 100	6.1 ± 1.84	CNS±	31 ± 10	> 100	73.2 ± 2.9%	3.09 ± 0.4	2.17	
Cc1[nH]nc2c1C(c1ccccc1Cl)C(C#N)=C(N)N2 (stereo not drawn) [4c]	23.3 ± 2.6	0.94 T. Eq. and 0.94 ± 0.04 T. Eq.	> 100	14.4 ± 2.19	CNS+	94 ± 35	> 100	58.7 ± 6.8%	1.51 ± 1.1	1.06	percentage of protection, okadaic acid toxicity [8]: over 50%; viability at 1 µM [8]: 74%; percentage of survival, R/O toxicity [9]: 81.3%
Cc1[nH]nc2c1C(c1ccccc1Br)C(C#N)=C(N)N2 (stereo not drawn) [4f]	21.6 ± 3.99	1.00 ± 0.16 T. Eq.	> 100	10.1 ± 0.72	CNS+	101 ± 54	> 100	7.39% and 7.39 ± 2.0%	0.83 ± 0.3	0.58	percentage of protection, okadaic acid toxicity [8]: over 50%
CC(=O)[C@H]1CC[C@H]2[C@@H]3CCC4=CC(=O)CC[C@]4(C)[C@H]3CC[C@]12C [Progesterone, reference compound]											Prediction of the BBB passive permeability [4]: CNS (+/-); Papp at 4 h, 100 µM [5, 14]: 22 ± 28 nm/s
Cc1[nH]nc2c1C(c1ccc(Cl)cc1)C(C#N)=C(N)N2 (stereo not drawn) [4e]	20.9 ± 5.91	0.66 T. Eq. and 0.66 ± 0.07 T. Eq.	> 100	4.4 ± 0.35	CNS+	129 ± 36	> 100	6.46% and 6.46 ± 1.6%	1.94 ± 0.5	1.36	viability at 1 µM [8]: 64.6%; percentage of survival, R/O toxicity [9]: 73.6%
Cc1[nH]nc2c1C(c1cccs1)C(C#N)=C(N)N2 (stereo not drawn) [4j]	20.9 ± 4.23	2.93 T. Eq. and 2.93 ± 0.15 T. Eq.	> 100	5.4 ± 0.27	CNS+	88 ± 44	> 100	60.6 ± 6.8%	1.74 ± 1	1.22	viability at 1 µM [8]: 64%; fold more potent GSK-3β inhibitor than 4l (GSK-3β; ratio of IC50 values): 5 fold
COCCOC(=O)C1=C(C)NC(C)=C(C(=O)OC(C)C)C1c1cccc([N+](=O)[O-])c1 (stereo not drawn) [Nimodipine, reference compound]								51.0 ± 2.6%			
COc1ccc2[nH]cc(CCNC(C)=O)c2c1 [Melatonin]											percentage of protection, R/O toxicity [9]: 52.5%; Glial cultures LD50 (primary glial cultures [11]): > 100 µM; SH-SY5Y LD50 [12]: > 100 µM
Cc1[nH]nc2c1C(c1cccc([N+](=O)[O-])c1)C(C#N)=C(N)N2 (stereo not drawn) [4h]	24.7 ± 4.03	0.73 T. Eq. and 0.73 ± 0.09 T. Eq.	> 100	3.5 ± 0.29	CNS±	21 ± 10	> 100	75.5 ± 2.7%	0.82 ± 0.2	0.57	percentage of protection, okadaic acid toxicity [8]: 34.6%; viability at 1 µM [8]: 60.8%
Cc1[nH]nc2c1C(c1ccc(F)cc1)C(C#N)=C(N)N2 (stereo not drawn) [4b]	22.8 ± 6.68	1.86 T. Eq. and 1.86 ± 0.08 T. Eq.	> 100	5.7 ± 0.62	CNS+	48 ± 26	> 100	48.5 ± 7.6%	2.14 ± 1.1	1.5	percentage of protection, R/O toxicity [9]: 62.7%; percentage of survival, R/O toxicity [9]: 84.3%
